Laboratory results reported in patent US20220073536A1 (Rigel Pharmaceuticals, Inc., priority 2003, published 2022).
Counter-ions that a name gives are not always drawn. Like-named read-outs stand apart in the source and are kept apart here.

System: cultured human mast cells (CHMC)
Test: CHMC low cell density IgE activation: tryptase assay
Format: cell-based
Conditions: low cell density CHMC, IgE activation, tryptase
In short: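 CHMC at 1000–1500 cells/well were preincubated 1 hr at 37° C., stimulated with anti-IgE for 30 minutes at 37° C., then pelleted. Supernatant tryptase was measured with a fluorogenic substrate after 30 min at room temperature, against un-stimulated control wells.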

[1] = 3 pt, read-out: LD Tryptase, CHMC, IgE, 3 pt
[2] = 8 pt, read-out: LD Tryptase, CHMC, IgE, 8 pt
[3] = Homo sapiens, Mast cell, 8 pt, read-out: LD Tryptase, CHMC, IgE, 8 pt
[4] = Homo sapiens, Mast cell, 3 pt, read-out: LD Tryptase, CHMC, IgE, 3 pt

Row | Compound | IC50 [1] | IC50 [3] | IC50 [4] | also measured
1 | CN1C(=O)C(C)(C)Oc2ccc(Nc3ncc(F)c(Nc4ccc5c(n4)N(C)C(=O)C(C)(C)O5)n3)nc21 [Compound 687, N2,N4-Bis (3-oxo-2,2,4-trimethyl-5-pyrid[1,4]oxazin-6-yl)-5-fluoro-2,4-pyrimidinediamine] | < 10 µM | – | – | –
2 | COC(=O)CN1C(=O)C(C)(C)Oc2ccc(Nc3ccnc(Nc4ccc5c(n4)N(CC(=O)OC)C(=O)C(C)(C)O5)n3)nc21 [Compound 688, N2,N4-Bis (2,2-dimethyl-4-carbomethoxymethyl-3-oxo-5-pyrid[1,4]oxazin-6-yl)-2,4-pyrimidinediamine] | > 10 µM | – | – | –
3 | COc1cc(Nc2ncc(F)c(Nc3ccc4c(n3)N(C)C(=O)C(C)(C)O4)n2)cc(OC)c1OC [Compound 689, 5-Fluoro-N4-(3-oxo-2,2,4-trimethyl-5-pyrid[1,4]oxazin-6-yl)-N2-(3,4,5-trimethoxyphenyl)-2,4-pyrimidinediamine] | – | – | – | IC50 [2]: < 10 µM
4 | COC(=O)CN1C(=O)C(C)(C)Oc2ccc(Nc3nc(Nc4cc(OC)c(OC)c(OC)c4)ncc3F)nc21 [Compound 690, N4-(2,2-Dimethyl-4-carbomethoxymethyl-3-oxo-5-pyrid[1,4]oxazin-6-yl)-5-fluoro-N2-(3,4,5-trimethoxyphenyl)-2,4-pyrimidinediamine] | – | – | – | IC50 [2]: < 10 µM
5 | CCCn1ncc2cc(Nc3ncc(F)c(Nc4ccc(OC)c(Cl)c4)n3)ccc21 [Compound 702, N4-(3-Chloro-4-methoxyphenyl)-5-fluoro-N2-(1-n-propylindazol-5-yl)-2,4-pyrimidinediamine] | – | < 10 µM | – | –
6 | CCCn1ncc2cc(Nc3ncc(F)c(Nc4ccc(Cl)c(Cl)c4)n3)ccc21 [Compound 703, N4-(3,4-Dichlorophenyl)-5-fluoro-N2-(1-n-propylindazol-5-yl)-2,4-pyrimidinediamine] | – | – | < 10 µM | –
7 | CCCn1ncc2cc(Nc3ncc(F)c(Nc4ccc(F)c(OC)c4)n3)ccc21 [Compound 705, 5-Fluoro-N4-(4-fluoro-3-methoxyphenyl)-N2-(1-n-propylindazol-5-yl)-2,4-pyrimidinediamine] | – | < 10 µM | – | –
8 | CCCn1ncc2ccc(Nc3ncc(F)c(Nc4ccc(Cl)c(Cl)c4)n3)cc21 [Compound 707, N4-(3,4-Dichlorophenyl)-5-fluoro-N2-(1-n-propylindazol-6-yl)-2,4-pyrimidinediamine] | – | < 10 µM | < 10 µM | –
9 | CCCn1ncc2ccc(Nc3ncc(F)c(Nc4ccc(F)c(OC)c4)n3)cc21 [Compound 709, 5-Fluoro-N4-(4-fluoro-3-methoxyphenyl)-N2-(1-n-propylindazol-6-yl)-2,4-pyrimidinediamine] | – | < 10 µM | – | –
10 | CCCCn1ncc2cc(Nc3ncc(F)c(Nc4ccc(OC)c(Cl)c4)n3)ccc21 [Compound 710, N2-(1-n-Butylindazol-5-yl)-N4-(3-chloro-4-methoxyphenyl)-5-fluoro-2,4-pyrimidinediamine] | – | – | < 10 µM | –
11 | CCCCn1ncc2cc(Nc3ncc(F)c(Nc4ccc(Cl)c(Cl)c4)n3)ccc21 [Compound 711, N2-(1-n-Butylindazol-5-yl)-N4-(3,4-dichlorophenyl)-5-fluoro-2,4-pyrimidinediamine] | – | – | < 10 µM | –
12 | CCCCn1ncc2cc(Nc3ncc(F)c(Nc4ccc5c(c4)NC(=O)C(C)(C)O5)n3)ccc21 [Compound 712, N2-(1-n-Butylindazol-5-yl)-N4-(2,2-dimethyl-3-oxo-4H-benz[1,4]oxazin-6-yl)-5-fluoro-2,4-pyrimidinediamine] | – | < 10 µM | – | –
13 | CCCCn1ncc2cc(Nc3ncc(F)c(Nc4ccc(F)c(OC)c4)n3)ccc21 [Compound 713, N2-(1-n-Butylindazol-5-yl)-5-fluoro-N4-(4-fluoro-3-methoxyphenyl)-2,4-pyrimidinediamine] | – | < 10 µM | < 10 µM | –
14 | CCCCn1ncc2ccc(Nc3ncc(F)c(Nc4ccc(OC)c(Cl)c4)n3)cc21 [Compound 714, N2-(1-n-Butylindazol-6-yl)-N4-(3-chloro-4-methoxyphenyl)-5-fluoro-2,4-pyrimidinediamine] | – | < 10 µM | – | –
15 | CCCCn1ncc2ccc(Nc3ncc(F)c(Nc4ccc(Cl)c(Cl)c4)n3)cc21 [Compound 715, N2-(1-n-Butylindazol-6-yl)-N4-(3,4-dichlorophenyl)-5-fluoro-2,4-pyrimidinediamine] | – | – | < 10 µM | –
16 | CCCCn1ncc2ccc(Nc3ncc(F)c(Nc4ccc5c(c4)NC(=O)C(C)(C)O5)n3)cc21 [Compound 716, N2-(1-n-Butylindazol-6-yl)-N4-(2,2-dimethyl-3-oxo-4H-benz[1,4]oxazin-6-yl)-5-fluoro-2,4-pyrimidinediamine] | – | < 10 µM | – | –
17 | CCCCn1ncc2ccc(Nc3ncc(F)c(Nc4ccc(F)c(OC)c4)n3)cc21 [Compound 717, N2-(1-n-Butylindazol-6-yl)-5-fluoro-N4-(4-fluoro-3-methoxyphenyl)-2,4-pyrimidinediamine] | – | – | < 10 µM | –
18 | COc1ccc(Nc2nc(Nc3ccc4c(cnn4CC4CCCCC4)c3)ncc2F)cc1Cl [Compound 718, N4-(3-Chloro-4-methoxyphenyl)-N2-[1-(cyclohexylmethyl)indazol-5-yl]-5-fluoro-2,4-pyrimidinediamine] | – | – | < 10 µM | –
19 | Fc1cnc(Nc2ccc3c(cnn3CC3CCCCC3)c2)nc1Nc1ccc(Cl)c(Cl)c1 [Compound 719, N2-[1-(Cyclohexylmethyl)indazol-5-yl]-N4-(3,4-dichlorophenyl)-5-fluoro-2,4-pyrimidinediamine] | – | – | < 10 µM | –
20 | CC1(C)Oc2ccc(Nc3nc(Nc4ccc5c(cnn5CC5CCCCC5)c4)ncc3F)cc2NC1=O [Compound 720, N2-[1-(Cyclohexylmethyl)indazol-5-yl]-N4-(2,2-dimethyl-3-oxo-4H-benz[1,4]oxazin-6-yl)-5-fluoro-2,4-pyrimidinediamine] | – | < 10 µM | – | –
21 | COc1cc(Nc2nc(Nc3ccc4c(cnn4CC4CCCCC4)c3)ncc2F)ccc1F [Compound 721, N2-[1-(Cyclohexylmethyl)indazol-5-yl)-5-fluoro-N4-(4-fluoro-3-methoxyphenyl)-2,4-pyrimidinediamine] | – | – | < 10 µM | –

Second part, led by results:

Row | IC50 [1] | IC50 [3] | IC50 [4] | Compound | also measured
22 | < 10 µM | – | – | COc1cc(Nc2ncc(F)c(Nc3ccc4c(n3)NC(=O)C(C)(C)O4)n2)cc(OC)c1OC.O=S(=O)(O)c1ccc(O)cc1 [Compound 676, N4-(2,2-Dimethyl-3-oxo-4H-5-pyrid[1,4]oxazin-6-yl)-5-fluoro-N2-(3,4,5-trimethoxyphenyl)-2,4-pyrimidinediamine 4-Hydroxybenzenesulfonic Acid Salt] | IC50 [2]: < 10 µM
23 | < 10 µM | – | – | COc1cc(Nc2ncc(F)c(Nc3ccc4c(n3)NC(=O)C(C)(C)O4)n2)cc(OC)c1OC.O=S(=O)(O)c1cccnc1 [Compound 678, N4-(2,2-Dimethyl-3-oxo-4H-5-pyrid[1,4]oxazin-6-yl)-5-fluoro-N2-(3,4,5-trimethoxyphenyl)-2,4-pyrimidinediamine 0.5 Pyridine-3-sulfonic Acid Salt] | IC50 [2]: < 10 µM
24 | < 10 µM | – | – | CCc1ccc(S(=O)(=O)O)cc1.COc1cc(Nc2ncc(F)c(Nc3ccc4c(n3)NC(=O)C(C)(C)O4)n2)cc(OC)c1OC [Compound 679, N4-(2,2-Dimethyl-3-oxo-4H-5-pyrid[1,4]oxazin-6-yl)-5-fluoro-N2-(3,4,5-trimethoxyphenyl)-2,4-pyrimidinediamine p-Ethylbenzenesulfonic Acid Salt] | IC50 [2]: < 10 µM
25 | < 10 µM | – | – | CNC(=O)Cn1ccc2cc(Nc3ncc(F)c(Nc4ccc5c(n4)NC(=O)C(C)(C)O5)n3)ccc21 [Compound 683, N4-(2,2-Dimethyl-3-oxo-4H-5-pyrid[1,4]oxazin-6-yl)-5-fluoro-N2-[1-(N-methylamino)carbonylmethyleneindol-5-yl]-2,4-pyrimidinediamine] | IC50 [2]: < 10 µM
26 | < 10 µM | – | – | Cc1cc(Nc2ncc(F)c(Nc3ccc4c(n3)NC(=O)C(C)(C)O4)n2)cc(C)c1Cl [Compound 684, N2-(4-Chloro-3,5-dimethylphenyl)-N4-(2,2-dimethyl-3-oxo-4H-5-pyrid[1,4]oxazin-6-yl)-5-fluoro-2,4-pyrimidinediamine p-Toluenesulfonic Acid Salt] | –
27 | < 10 µM | – | – | CC1(C)Oc2ccc(Nc3nc(Nc4cc(Cl)c(O)c(Cl)c4)ncc3F)nc2NC1=O [Compound 686, N4-(2,2-Dimethyl-3-oxo-4H-5-pyrid[1,4]oxazin-6-yl)-N2-(3,5-dichloro-4-hydroxyphenyl)-5-fluoro-2,4-pyrimidinediamine] | IC50 [2]: < 10 µM
28 | < 10 µM | – | – | COC(=O)CN1C(=O)C(C)(C)Oc2ccc(N(CC(=O)OC)c3nc(Nc4cc(OC)c(OC)c(OC)c4)ncc3F)nc21 [Compound 691, N4-(2,2-Dimethyl-4-carbomethoxymethyl-3-oxo-5-pyrid[1,4]oxazin-6-yl)-5-fluoro-N4-carbomethoxymethyl-N2-(3,4,5-trimethoxyphenyl)-2,4-pyrimidinediamine] | –
29 | < 10 µM | – | – | COc1cc(Nc2ncc(F)c(Nc3ccc4c(n3)NC(=O)C(C)(C)O4)n2)cc(OC)c1OCCN1CCOCC1 [Compound 692, N2-[3,5-Dimethoxy-4-(2-(N-morpholino)ethyloxo)phenyl]-N4-(2,2-dimethyl-3-oxo-4H-5-pyrid[1,4]oxazin-6-yl)-5-fluoro-2,4-pyrimidinediamine] | IC50 [2]: < 10 µM
30 | < 10 µM | – | – | CC1(C)Oc2ccc(Nc3ncc(F)c(Nc4ccc5c(n4)NC(=O)C(C)(C)O5)n3)nc2NC1=O [Compound 693, N2, N4-Bis (2,2-dimethyl-3-oxo-4H-5-pyrid[1,4]oxazin-6-yl)-5-fluoro-2,4-pyrimidinediamine] | –
31 | – | < 10 µM | – | CCCn1ncc2cc(Nc3ncc(F)c(Nc4ccc5c(c4)NC(=O)C(C)(C)O5)n3)ccc21 [Compound 704, N4-(2,2-Dimethyl-3-oxo-4H-benz[1,4]oxazin-6-yl)-5-fluoro-N2-(1-n-propylindazol-5-yl)-2,4-pyrimidinediamine] | –
32 | – | < 10 µM | – | CCCn1ncc2ccc(Nc3ncc(F)c(Nc4ccc5c(c4)NC(=O)C(C)(C)O5)n3)cc21 [Compound 708, N4-(2,2-Dimethyl-3-oxo-4H-benz[1,4]oxazin-6-yl)-5-fluoro-N2-(1-n-propylindazol-6-yl)-2,4-pyrimidinediamine] | –
